The source of these data is ChEMBL document CHEMBL5131491, “N6-modification of 7-Deazapurine nucleoside analogues as Anti-Trypanosoma cruzi and anti-Leishmania agents: Structure-activity relationship exploration and In vivo evaluation” (Eur J Med Chem, 2022).

The structures appear in SMILES notation.

Data set [1] concerns Trypanosoma cruzi. Description: Antitrypanosomal activity against intracellular Trypanosoma cruzi Tulahuen amastigotes expressing CL2 beta-galactosidase in human MRC5 cells assessed as parasite growth inhibition using chlorophenol red beta-D-galactopyranoside as substrate treated for 7 days by spectrophotometry. In kind it is functional, organism-based. Particulars: MRC5, 168 h.

Data set [2] in a line: Cytotoxicity against human MRC5 fibroblast cells assessed as reduction in cell viability measured after 3 days by fluorometry. Particulars: time 3 day. The format is toxicity, cell-based.
Data set [3] can be described thus: Cytotoxicity against Swiss mouse peritoneal macrophages assessed as reduction in cell viability measured after 5 days by microscopic analysis. In kind it is toxicity, cell-based, Macrophage. Particulars: time 5 day.
Another data set relates to Leishmania infantum. Description: Antileishmanial activity against intracellular Leishmania infantum MHOM/MA(BE)/67 amastigotes infected in Swiss mouse peritoneal macrophages assessed as parasite growth inhibition incubated for 5 days by giemsa staining based microscopic analysis. The format is functional, organism-based. Particulars: MHOM/MA(BE)/67, Macrophage, 120 h.

Data set [4] can be described thus: Selectivity index, ratio of CC50 for Swiss mouse peritoneal macrophages to EC50 for antileishmanial activity against intracellular Leishmania infantum MHOM/MA(BE)/67 amastigotes infected in Swiss mouse peritoneal macrophages. The format is toxicity, cell-based. Particulars: read-out: Selectivity Index.
The nature of data set [5]: Selectivity index, ratio of CC50 for human MRC-5 cells to EC50 for antitrypanosomal activity against intracellular Trypanosoma cruzi Tulahuen amastigotes expressing CL2 beta-galactosidase in human MRC5 cells. In kind it is toxicity, cell-based. Particulars: read-out: Selectivity Index.
A short description of data set [6]: Toxicity in acute CD Swiss Webster mouse model infected with Trypanosoma cruzi Y strain assessed as animal survival at 100 mg/kg, po qd for 5 consecutive days measured daily for upto 30 days post-treatment. The format is organism-based. Particulars: in vivo, 720 h, time < 30 day.
In data set [7] the test system is Trypanosoma cruzi. In words: Antitrypanosomal activity against Trypanosoma cruzi Y strain infected in acute CD Swiss Webster mouse model assessed as reduction in parasitemia at 100 mg/kg, po qd for 5 consecutive days by light microscopy relative to control. The format is functional. Details: scale not given: the % may be the effect or the level left. Particulars: time 5 day.

With `OC[C@H]1O[C@@H](n2ccc3c(NC4CCCCC4)ncnc32)[C@H](O)[C@@H]1O`, the figures for the EC50 with Trypanosoma cruzi [1] and with Leishmania infantum were 7.82 µM and 19.3 µM, respectively. Further, in data set [2], the CC50 at 72 h is 44.6 µM. Besides, the CC50 at 120 h in data set [3] is > 64 µM. The selectivity ratio is > 3.32 in data set [4] and 5.7 in data set [5].
`OC[C@H]1O[C@@H](n2ccc3c(NC4CC4)ncnc32)[C@H](O)[C@@H]1O`: the EC50 amounted to 2.28 µM in the data set on Trypanosoma cruzi [1] and 0.36 µM in the data set on Leishmania infantum. For the same compound, in data set [2], the CC50 at 72 h was > 64 µM. The CC50 at 120 h in data set [3] was determined as 1.25 µM. Further, the selectivity ratio was 3.47 in data set [4] and > 28.1 in data set [5].
Take `OC[C@H]1O[C@@H](n2ccc3c(NC4CCCC4)ncnc32)[C@H](O)[C@@H]1O`: the EC50 in the data set on Trypanosoma cruzi [1] was found to be 14.5 µM; with Leishmania infantum, 35 µM. Besides, the 50% cytotoxic concentration (CC50) at 72 h in data set [2] was > 64 µM. Besides, in data set [3], the CC50 at 120 h was > 64 µM. In addition, the selectivity ratio was > 1.83 in data set [4] and > 4.41 in data set [5].
Turning to `Nc1nc(N)c2ccn([C@@H]3O[C@H](CO)[C@@H](O)[C@H]3O)c2n1`, the values for the EC50 with Trypanosoma cruzi [1] and with Leishmania infantum were 1.36 µM and 21.4 µM, respectively. Also, in data set [2], the CC50 at 72 h is > 64 µM. Further, the CC50 at 120 h in data set [3] was > 64 µM. Further, the values for the selectivity ratio in data set [4] and in data set [5] were > 2.99 and 6.6, respectively.
Consider `CC1CCN(c2ncnc3c2ccn3[C@@H]2O[C@H](CO)[C@@H](O)[C@H]2O)CC1`, for which the EC50 with Trypanosoma cruzi [1] is 7.84 µM; in the data set on Leishmania infantum, 2.6 µM. In addition, in data set [2], the CC50 at 72 h is > 64 µM. Further, in data set [3], the CC50 at 120 h was determined as 8 µM. Also, the selectivity ratio in data set [4] is 3.08; in data set [5] it was > 8.15.
For the compound `CCN(CC)c1ncnc2c1ccn2[C@@H]1O[C@H](CO)[C@@H](O)[C@H]1O`, the EC50 in the data set with Trypanosoma cruzi [1] and in the data set on Leishmania infantum was > 64 µM in each case. For the same compound, in data set [2], the cytotoxic concentration (CC50) at 72 h was > 64 µM. Further, the CC50 at 120 h in data set [3] came to 64 µM.
For `Nc1ncnc2c1ccn2[C@@H]1O[C@H](CO)C[C@H]1O`, the half-maximal effective concentration (EC50) in the data set on Trypanosoma cruzi [1] and in the data set with Leishmania infantum was > 64 µM in each case. The CC50 at 72 h in data set [2] was > 64 µM. For the same compound, the cytotoxic concentration (CC50) at 120 h in data set [3] is > 64 µM.
`CCNc1ncnc2c1ccn2[C@@H]1O[C@H](CO)[C@@H](O)[C@H]1O`: the concentration giving a half-maximal response (EC50) came to 5.08 µM in the data set with Trypanosoma cruzi [1] and 0.51 µM in the data set on Leishmania infantum. Besides, the CC50 at 72 h in data set [2] was > 64 µM. Also, the 50% cytotoxic concentration (CC50) at 120 h in data set [3] is > 64 µM. Moreover, the selectivity ratio in data set [4] is > 125; in data set [5] it was > 12.6.
On to `O=C(Cn1ccnc1[N+](=O)[O-])NCc1ccccc1` [BENZNIDAZOLE], for which, in data set [6], the Survival result was “Non-Toxic”. Besides, in the data set with Trypanosoma cruzi [7], the Activity is given as 100%.
For the compound `Nc1cnc2c(ccn2[C@@H]2O[C@H](CO)[C@@H](O)[C@H]2O)c1`, the EC50 in the data set with Trypanosoma cruzi [1] and in the data set on Leishmania infantum was > 64 µM in each case. In data set [2], the CC50 at 72 h was > 64 µM. In data set [3], the CC50 at 120 h was > 64 µM. The selectivity ratio in data set [5] is 7.9.
Take `CCCCNc1ncnc2c1ccn2[C@@H]1O[C@H](CO)[C@@H](O)[C@H]1O`: the EC50 with Trypanosoma cruzi [1] worked out at 4.13 µM; in the data set with Leishmania infantum, 3.84 µM. Besides, the CC50 at 72 h in data set [2] was > 64 µM. The CC50 at 120 h in data set [3] was > 64 µM. In addition, the selectivity ratio in data set [4] was > 16.7; in data set [5], > 15.5.
As to `C=CCNc1ncnc2c1ccn2[C@@H]1O[C@H](CO)[C@@H](O)[C@H]1O`, the EC50 in the data set on Trypanosoma cruzi [1] worked out at 2.58 µM; in the data set on Leishmania infantum it was 6.01 µM. Also, the CC50 at 72 h in data set [2] was 8.9 µM. Besides, in data set [3], the 50% cytotoxic concentration (CC50) at 120 h was 8 µM. Further, the selectivity ratio in data set [4] was determined as 1.33; in data set [5], 3.45.
In the case of `Nc1ccnc2c1ccn2[C@@H]1O[C@H](CO)[C@@H](O)[C@H]1O`, the EC50 in the data set with Trypanosoma cruzi [1] was found to be 2.27 µM; with Leishmania infantum, 38.9 µM. For the same compound, in data set [2], the CC50 at 72 h stood at 17.9 µM. For the same compound, the CC50 at 120 h in data set [3] is > 64 µM. Further, the selectivity ratio in data set [4] is > 1.65; in data set [5], > 47.1.
Take `OC[C@H]1O[C@@H](n2ccc3c(N4CCCC4)ncnc32)[C@H](O)[C@@H]1O`: the EC50 with Trypanosoma cruzi [1] and with Leishmania infantum was > 64 µM each time. Moreover, the CC50 at 72 h in data set [2] is > 64 µM. Further, the CC50 at 120 h in data set [3] turned out to be 64 µM.
`OC[C@H]1O[C@@H](n2ccc3c(N4CCOCC4)ncnc32)[C@H](O)[C@@H]1O`: the EC50 in the data set with Trypanosoma cruzi [1] and in the data set with Leishmania infantum was > 64 µM throughout. Further, in data set [2], the CC50 at 72 h was > 64 µM. Further, in data set [3], the CC50 at 120 h is > 64 µM.
For the compound `Nc1ncc2ccn([C@@H]3O[C@H](CO)[C@@H](O)[C@H]3O)c2n1`, the EC50 in the data set on Trypanosoma cruzi [1] was 33.8 µM; in the data set on Leishmania infantum, > 64 µM. In data set [2], the half-maximal cytotoxic concentration (CC50) at 72 h was > 64 µM. Besides, the CC50 at 120 h in data set [3] is > 64 µM. Further, the selectivity ratio in data set [5] is > 1.89.
`CCCNc1ncnc2c1ccn2[C@@H]1O[C@H](CO)[C@@H](O)[C@H]1O`: the EC50 was 14.2 µM with Trypanosoma cruzi [1] and > 64 µM in the data set on Leishmania infantum. The CC50 at 72 h in data set [2] is > 64 µM. Moreover, the CC50 at 120 h in data set [3] was > 64 µM. Besides, the selectivity ratio in data set [5] was > 4.51.
As to `OC[C@H]1O[C@@H](n2ccc3c(Nc4ccccc4)ncnc32)[C@H](O)[C@@H]1O`, the figures for the EC50 in the data set with Trypanosoma cruzi [1] and in the data set on Leishmania infantum were 7.89 µM and 1.37 µM, respectively. For the same compound, in data set [2], the CC50 at 72 h was > 64 µM. Besides, the CC50 at 120 h in data set [3] was 2 µM. The selectivity ratio in data set [4] is 1.46; in data set [5] it was > 8.11.
Consider `CCCCCCCCCCCCCCCCOP(=O)([O-])OCC[N+](C)(C)C` [MILTEFOSINE], for which the EC50 with Leishmania infantum is 8.3 µM.
In the case of `CNc1ncnc2c1ccn2[C@H]1O[C@@H](CO)[C@H](O)[C@@H]1O`, the EC50 in the data set on Trypanosoma cruzi [1] was 32.3 µM; in the data set on Leishmania infantum, > 64 µM. In data set [2], the 50% cytotoxic concentration (CC50) at 72 h is > 64 µM. Moreover, the CC50 at 120 h in data set [3] is > 64 µM. In data set [5], the selectivity ratio was > 1.98.
In the case of `OC[C@H]1O[C@@H](n2ccc3c(N4CCC4)ncnc32)[C@H](O)[C@@H]1O`, the figures for the EC50 in the data set on Trypanosoma cruzi [1] and in the data set on Leishmania infantum were 6.67 µM and > 64 µM, respectively. In data set [2], the CC50 at 72 h was > 64 µM. Also, the CC50 at 120 h in data set [3] amounted to 64 µM. Further, the selectivity ratio in data set [5] is > 9.6.
Take `Nc1ncnc2c1ccn2[C@@H]1O[C@H](CO)[C@@H](O)[C@H]1O` [TUBERCIDIN]: the concentration giving a half-maximal response (EC50) is 0.34 µM with Trypanosoma cruzi [1] and 0.13 µM with Leishmania infantum. For the same compound, the 50% cytotoxic concentration (CC50) at 72 h in data set [2] came to 2.23 µM. Further, in data set [3], the CC50 at 120 h was determined as 0.13 µM. The selectivity ratio was found to be 1 in data set [4] and 6.6 in data set [5].
Regarding `OC[C@H]1O[C@@H](n2ccc3c(N4CCCCC4)ncnc32)[C@H](O)[C@@H]1O`, the concentration giving a half-maximal response (EC50) in the data set with Trypanosoma cruzi [1] turned out to be 7.74 µM; in the data set on Leishmania infantum it was 1.11 µM. Further, the CC50 at 72 h in data set [2] was > 64 µM. Further, the CC50 at 120 h in data set [3] was 2 µM. Besides, the results for the selectivity ratio in data set [4] and in data set [5] were 1.8 and > 8.27, respectively.
As for `CN(C)c1ncnc2c1ccn2[C@@H]1O[C@H](CO)[C@@H](O)[C@H]1O`, the EC50 in the data set with Trypanosoma cruzi [1] is 1.65 µM; in the data set with Leishmania infantum, > 64 µM. In data set [2], the CC50 at 72 h was 7.06 µM. In addition, the CC50 at 120 h in data set [3] stood at 64 µM. In data set [5], the selectivity ratio came to 4.28.
Regarding `CC(C)Nc1ncnc2c1ccn2[C@@H]1O[C@H](CO)[C@@H](O)[C@H]1O`, the EC50 with Trypanosoma cruzi [1] and in the data set on Leishmania infantum was > 64 µM in each case. In addition, the CC50 at 72 h in data set [2] was > 64 µM. In addition, the CC50 at 120 h in data set [3] was > 64 µM.
With `OC[C@H]1O[C@@H](n2ccc3c(NCc4ccccc4)ncnc32)[C@H](O)[C@@H]1O`, the results for the EC50 in the data set on Trypanosoma cruzi [1] and in the data set with Leishmania infantum were 7.48 µM and 1.09 µM, respectively. Moreover, in data set [2], the CC50 at 72 h is > 64 µM. Besides, the CC50 at 120 h in data set [3] was 5 µM. Besides, the selectivity ratio in data set [4] is 4.59; in data set [5] it was > 8.56.

One may read the EC50 as the concentration that produces a half-maximal response. As a reminder, the CC50 is the concentration that lowers cell viability or growth by half.
